From US20250145600A1, “2-((4-((S)-2-(4-CHLORO-2-FLUOROPHENYL)-2-METHYLBENZO[D][1,3]DIOXOL-4-YL)PIPERIDIN-1-YL)METHYL)-1-(((S)-OXETAN-2-YL)METHYL)-1H-IMIDAZOLE DERIVATIVES AS ACTIVATORS OF THE GLP1 RECEPTOR FOR THE TREATMENT OF OBESITY” (Novartis AG, priority 2022, published 2025)

Biological target: human GLP1R (hGLP1R) (Homo sapiens, UniProt P43220)
Experiment: Human GLP1R cAMP agonist assay (GloSensor cAMP Assay)
Type: cell-based
Conditions: HEK293-SNAP-hGLP1R-GloSensor cells
Protocol: Compounds of formula (I) according to the invention were tested in the following cellular assays that measure the intracellular cAMP concentration, beta-arrestin recruitment and receptor internalization. The cAMP is generated by the activation of GLP1R. The extent to which the GLP1R is internalized into the cell and away from the plasma membrane following activation is also shown in Table 2. EC50 for each assay is defined as the concentration of the compound that leads to half of the maximum response (after baseline correction). Emax is defined as the maximum response observed for the test compound, normalized to the maximum response observed for the endogenous ligand (GLP1(7-36)) to GLP1R.
Human GLP1R cAMP Agonist Assay
The agonist activity of compounds was determined using the GloSensor™ cAMP Assay (Promega Corp.), which measures changes in the intracellular concentration of cAMP after ligand activation of GPCRs. The assay uses a biosensor encoded by pGloSensor™-22F cAMP plasmid (Promega, cat #E2301) with cAMP binding domains fused to a mutant form of Photinus pyralis luciferase. Binding to cAMP causes conformational changes that promote large increases in light output, which can be measured by a luminescence detector. HEK293-SNAP-hGLP1R-GloSensor cells stably overexpressing the human GLP1 receptor (hGLP1R) and pGloSensor™-22F were seeded in white 384-well poly-D-Lysine coated plates (Greiner Bio One, cat #781945) in CO2-independent media (Gibco cat #18045-088 with 1.0% FBS, 2 mM L-glutamine, penicillin and streptomycin) and incubated overnight at 37° C., 5% CO2 with humidity. The assay was started the following morning by adding an equal volume of CO2-independent media containing 4% v/v dilution of the GloSensor substrate (Promega, cat #E1291) to all wells. The cell plate was incubated at rt for 2 h in the dark. The Biomek 7 (Beckman Coulter) instrument was used for the liquid handling steps. To generate duplicate dose response curves, 3-fold serially diluted compounds were added in to the cell assay plate to a final volume of 60 μL with final concentrations ranging from 30 μM through 0.06 μM in CO2-independent media containing 0.1% BSA, 0.5 mM IBMX and 0.4% DMSO. In the same plate and assay buffer as the tested compounds, were EC100 control wells containing GLP1 (7-36) peptide (Bachem, cat #H-6795) at a final concentration of 2 nM and also EC0 control wells containing no peptide. This plate was incubated at rt in the dark for 12 min after adding the compounds to the cells. Luminescence was then measured with an Envision 2104 Multilabel reader with “TRF Light Unit, 337 nm” (PerkinElmer) using the Ultra-Sensitive protocol setting “384-well US luminescence detector” with the 384-well luminescence aperture, 0.1 seconds per well. cAMP activity was calculated as percent of the GLP1 (7-36) EC100 control wells: [(sample signal−mean EC0 signal)/(mean EC100 of GLP1 (7-36) signal−mean EC0 signal)}*100. Curve fitting for EC50 determinations was performed in the Helios module of the software package DAVID. The 4-parameter logistic model, Hill slope was used: y=Ainf+(A0−Ainf)/(1+(x/AC50)^Hill Slope) where y is the functional response; x is the compound concentration; A0 is the minimum value (at 0 dose); Ainf is the maximum value (at infinite dose); AC50 corresponds to the point of inflection (i.e. the point on the sigmoid shaped curve halfway between A0 and Ainf). The EC50 value was represented by the AC50 value calculated from Helios in μM. Emax is the maximal activity detected within the concentration range, derived from the fitted curve.
327 μL of Opti-MEM medium (Gibco, cat #31985-062) were mixed with 12 μL of FuGENE® HD (Promega, cat #E2311) and incubated at rt for 5 min. Then 8.2 μL (4 μg, 0.485 μg/μL solution) of pSNAP-hGLP1R plasmid (Cisbio, cat #PSNAP-GLP1) encoding human GLP1R (NCBI Reference Sequence: NM_002062.3) fused with Cisbio's SNAP tag was added in to the Fugene HD/Opti-MEM mix, and incubated at rt for 20 min. […]

Sequence of human GLP1R (hGLP1R) (P43220 24-463): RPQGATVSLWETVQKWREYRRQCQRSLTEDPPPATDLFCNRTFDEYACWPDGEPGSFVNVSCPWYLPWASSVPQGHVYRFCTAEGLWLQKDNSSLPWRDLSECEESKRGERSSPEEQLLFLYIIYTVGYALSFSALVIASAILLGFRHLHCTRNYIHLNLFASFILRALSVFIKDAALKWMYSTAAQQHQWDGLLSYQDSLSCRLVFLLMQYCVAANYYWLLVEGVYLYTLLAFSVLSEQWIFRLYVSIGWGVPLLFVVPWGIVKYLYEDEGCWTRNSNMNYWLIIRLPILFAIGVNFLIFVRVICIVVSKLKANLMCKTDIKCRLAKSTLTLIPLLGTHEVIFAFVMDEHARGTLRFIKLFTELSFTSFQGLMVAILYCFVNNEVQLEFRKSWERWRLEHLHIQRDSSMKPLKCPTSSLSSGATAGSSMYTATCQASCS

Work on `Cc1nc(CN2CCC(c3cccc4c3O[C@@](C)(c3ccc(Cl)cc3F)O4)CC2)n(C[C@@H]2CCO2)c1-c1cc(C(=O)O)n(C)n1` [Compound C-21, 3-(2-((4-((S)-2-(4-chloro-2-fluorophenyl)-2-methylbenzo[d][1,3]dioxol-4-yl)piperidin-1-yl)methyl)-4-methyl-1-(((S)-oxetan-2-yl)methyl)-1H-imidazol-5-yl)-1-methyl-1H-pyrazole-5-carboxylic acid] yielded an Emax (cAMP activity as percent of GLP1 (7-36) EC100 control) of 117% and an EC50 (intracellular cAMP, 12 min at rt) of 0.836 nM.
